Reference: patent publication US4806532A, “Inhibition of epithelial phosphate transport” (Mayo Foundation for Medical Education and Research, priority 1985, dated 1989)
Where a name gives a salt, the structure may show the parent alone.

Tests used:
[1] = target: T1, Na-Pi cotransporter (Rattus norvegicus, UniProt Q9JJ09); experiment: Na+-gradient-dependent 32Pi uptake by intestinal BBMV; assay type: biochemical; conditions: 1 mM; for effect on initial 32P uptake by intestinal BBMV (in words): FIG. 4, Table 7; for 32Pi-phosphate uptake 30 sec: initial phase, rat small intestine BBMV, control 75 ± 3
T1 construct: The intestinal BBMV fractions were prepared from mucosa of rat small intestine; from tissue; host or cells: rat small intestine mucosa, brush border membrane vesicles
T1 sequence (Q9JJ09 1-695): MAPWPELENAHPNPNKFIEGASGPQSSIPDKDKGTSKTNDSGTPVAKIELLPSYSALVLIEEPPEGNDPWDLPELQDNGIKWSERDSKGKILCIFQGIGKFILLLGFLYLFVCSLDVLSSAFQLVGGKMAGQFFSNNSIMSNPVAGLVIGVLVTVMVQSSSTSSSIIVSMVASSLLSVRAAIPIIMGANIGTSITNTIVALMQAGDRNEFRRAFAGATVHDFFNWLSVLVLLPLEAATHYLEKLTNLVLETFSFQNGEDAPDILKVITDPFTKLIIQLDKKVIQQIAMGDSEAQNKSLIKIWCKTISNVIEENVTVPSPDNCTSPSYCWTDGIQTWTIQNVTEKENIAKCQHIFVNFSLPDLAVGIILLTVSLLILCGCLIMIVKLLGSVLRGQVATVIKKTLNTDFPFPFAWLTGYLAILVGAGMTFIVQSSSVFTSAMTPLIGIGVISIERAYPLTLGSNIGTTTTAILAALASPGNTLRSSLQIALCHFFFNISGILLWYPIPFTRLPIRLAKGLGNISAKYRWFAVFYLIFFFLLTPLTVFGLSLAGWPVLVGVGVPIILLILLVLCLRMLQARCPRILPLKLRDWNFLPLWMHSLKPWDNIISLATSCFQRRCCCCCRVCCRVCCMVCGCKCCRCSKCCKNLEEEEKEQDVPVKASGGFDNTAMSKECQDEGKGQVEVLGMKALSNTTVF
Method: (§1) The intestinal BBMV fractions were prepared from mucosa of rat small intestine of rats using the modified magnesium- precipitation method as described by B. Steiger and H. Murer [Eur. J. Biochem., 135, 95 (1983)]. This intestinal BBMV fraction is analogous to the BBMV fraction isolated from kidney. The uptake of ^32 Pi in the presence of Na^+ -gradient [Nao^+ >Nai^+ ] was determined by a rapid filtration technique similar to that employed in the transport measurements on renal BBMV. The Na^+ -gradient [Nao^+ >Nai^+ ]-dependent Pi uptake in the initial phase was measured after 30 sec. The ^32 Pi uptake at equilibrium was measured at 180 min.

[2] = tested on: Na-Pi cotransporter; experiment: as above; assay type: biochemical, rat; conditions: 1 mM; equilibrium; rat small intestine BBMV; control 151 ± 4
Method: as §1

[3] = tested on: L-[^3 H]--proline uptake by BBMV from rat small intestine; experiment: L-[3H]-proline uptake by intestinal BBMV; assay type: biochemical; conditions: 1 mM; for L-[3H]-proline uptake 15 sec: control 27 ± 0.2; for L-[3H]-proline uptake 120 min: control 53 ± 2
[4] = Hydrolysis of phosphono-compounds (release of Pi) in the BBMV assay; conditions: 1 mM; hydrolysis to release more than 5% Pi
Source text: Compounds studied in the present experiments which inhibited BBM transport of Pi without hydrolysis to release more than 5% Pi are listed in Table 1.

[5] = tested on: D-[^3 H]--glucose uptake by BBMV from rat small intestine; experiment: D-[3H]-glucose uptake by intestinal BBMV; assay type: biochemical; conditions: 1 mM; for D-[3H]-glucose uptake 120 min: control 57 ± 2; for D-[3H]-glucose uptake 15 sec: control 67 ± 0.5
Method: The intestinal BBMV fractions were prepared from mucosa of rat small intestine of rats using the modified magnesium- precipitation method as described by B. Steiger and H. Murer [Eur. J. Biochem., 135, 95 (1983)]. This intestinal BBMV fraction is analogous to the BBMV fraction isolated from kidney. […]

O=C(O)CP(=O)(O)O [PAA, phosphonoacetic acid]
effect on initial 32P uptake by intestinal BBMV (in words) [1]: markedly inhibited | 32Pi-phosphate uptake 30 sec [1]: 51 ± 0.3 pmoles/mg protein | 32Pi-phosphate uptake 180 min [2]: 163 ± 6 pmoles/mg protein | L-[3H]-proline uptake 15 sec [3]: 27 ± 1.0 pmoles/mg protein | L-[3H]-proline uptake 120 min [3]: 55 ± 1.0 pmoles/mg protein | Note: hydrolysis [4]: no | D-[3H]-glucose uptake 120 min [5]: 61 ± 3 pmoles/mg protein | D-[3H]-glucose uptake 15 sec [5]: 68 ± 3 pmoles/mg protein

O=C(O)P(=O)(O)O [TPFA, Phosphonoformic acid, trisodium salt hexahydrate]
effect on initial 32P uptake by intestinal BBMV (in words) [1]: markedly inhibited | 32Pi-phosphate uptake 30 sec [1]: 44 ± 2 pmoles/mg protein | 32Pi-phosphate uptake 180 min [2]: 146 ± 5 pmoles/mg protein | L-[3H]-proline uptake 15 sec [3]: 27 ± 0.4 pmoles/mg protein | L-[3H]-proline uptake 120 min [3]: 54 ± 0.1 pmoles/mg protein | Note: hydrolysis [4]: no | D-[3H]-glucose uptake 120 min [5]: 57 ± 2 pmoles/mg protein | D-[3H]-glucose uptake 15 sec [5]: 69 ± 2 pmoles/mg protein
